Results reported in patent publication US10918683B2, “Methods to reduce fat accumulation and oxidative damage in liver using green mango extracts and compounds obtained therefrom” (TCI CO., LTD., priority 2018, dated 2021).

System: HepG2 cells
Experiment: Oil red O staining of fat accumulation in oleic acid-treated HepG2 cells
Type: cell-based, human
Conditions: 10 μg/mL compound (dissolved in DMSO)
Method: HepG2 cells were cultured at 37° C. under 5% carbon dioxide in DMEM supplemented with 10% FBS and 1% penicillin/streptomycin, hereinafter referred to as DMEM culture medium.
To prepare the oil red O staining solution, the dye, oil red O, was first dissolved in 100% isopropanol thoroughly to prepare a 30 mg/mL oil red O stock solution. To obtain a ready-to-use oil red O staining solution, the stock solution was diluted with double deionized water to a concentration of 18 mg/mL and filtered through a 0.22 μm filter immediately before use.
To obtain a DMEM containing oleic acid-BSA conjugate, 10 mg/mL BSA and 28 μg/mL oleic acid were added to a DMEM with 2% FBS and 1% penicillin/streptomycin. The resulting mixture was stirred for about 30 minutes to facilitate the conjugation between oleic acid and BSA and the formation of conjugates.
The neutral fat content of cells was determined by oil red O staining. Prior to staining, the cells after indicated treatment were washed with PBS and then fixed with 10% formaldehyde for 30 minutes. The fixed cells were washed once with PBS and rinsed with 50% isopropanol for 15 seconds. Thereafter, the cells were stained with the oil red O staining solution for 1 hour. […] Alternatively, the intracellular dye was dissolved with 100% isopropanol and quantified by spectrophotometry. […]

O=C(OCC1OC(OC(=O)c2cc(O)c(O)c(O)c2)C(OC(=O)c2cc(O)c(O)c(O)c2)C(OC(=O)c2cc(O)c(O)c(O)c2)C1OC(=O)c1cc(O)c(O)c(O)c1)c1ccc(O)cc1 (centres unmarked) [formula (Ia)]
reduction of fat accumulation in HepG2 cells compared with oleic acid alone: approximately 33%

O=C(OCC1OC(OC(=O)c2cc(O)c(O)c(O)c2)C(OC(=O)c2cc(O)c(O)c(O)c2)C(OC(=O)c2cc(O)c(O)c(O)c2)C1OC(=O)c1cc(O)c(O)c(O)c1)c1cc(O)c(O)c(O)c1 (centres unmarked) [formula (Ib), 1,2,3,4,6-penta-O-galloyl-glucopyranoside]
reduction of fat accumulation in HepG2 cells compared with oleic acid alone: ~44%
